According to patent US20190119200A1, “TERTIARY AMIDES AND METHOD OF USE” (AbbVie Inc., priority 2016, published 2019):

Columns and labels:
Format in all cases: cell-based
LPAR1 [1] = target: T1, LPAR1 (Homo sapiens, UniProt Q92633); experiment: LPAR1 FLIPR Assay; conditions: U2OS cells stably expressing LPAR1, LPA (EC80), Calcium 6 FLIPR dye; for Emax: read-out: Maximum Inhibition
T1 construct: host or cells: U2OS
In short: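 Calcium flux read-out (515-575 nm, FLIPR) in LPAR1-expressing U2OS cells after LPA challenge at EC80, given 3 min after compound addition; cells carried Calcium 6 dye loaded 2 h at 37° C. Eleven-point 3-fold dilutions were fitted with a four-parameter Hill equation for IC50.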

LPAR1 [2] = target: T1, LPAR1; experiment: IP-One HTRF Assay; conditions: U2OS cells stably expressing LPAR1, LPA stimulation, IP-One Tb HTRF kit; for Emax: read-out: Maximum Inhibition
Experimental: U2OS cells stably expressing LPAR1 (Life Technologies #K1519A) were plated at 20000 cells/well in growth medium (McCoy's 5A(Life Technologies #16600-082)) with 10% dFBS (Life Technologies #26400-036), 0.1 mM non-essential amino acids, 25 mM HEPES, 1 mM sodium pyruvate, 1% penicillin/streptomycin, 50 μg/mL hygromycin, and 100 μg/mL Geneticin® in tissue culture treated 384-well white plates (Greiner #781080) in humidified 5% CO2 at 37° C. overnight. On the day of the assay, culture medium was replaced with 30 μL/well of McCoy's 5A with 0.1% BSA. Cells were incubated in humidified 5% CO2 at 37° C. for 3 more hours. Compounds were 3-fold serial diluted from 2 mM for 11-points using dimethyl sulfoxide. 1 μL of compound in DMSO was diluted in 50 μL stimulation buffer from an IP-One Tb HTRF kit (Cisbio #62IPAPEB) immediately before assay. 15 μL/well of 1.33× compound in stimulation buffer was added to cells after removal of culture medium. After 20 minutes of incubation at 37° C., 5 μL/well of 8 μM LPA diluted in stimulation buffer with 0.1% fatty acid free BSA was added to cells. […]. To EC100 wells were added 4×20 μM LPA. To the cells were added 5 μL/well IP1-d2 conjugate and 5 μLwell IP1-K antibody after 2 hours of incubation at 37° C. Cells were incubated at room temperature for 1 hour (protected from light). The plate was then read at 665 nm and 615 nm using an EnVision® Multilabel Plate Reader. IC50 values were calculated from curve fits of the ratio data using a four-parameter logistic Hill equation (Assay Explorer 3.3 Client).

[3] = system: LPA-induced MCP-1 in NRK-49F cells; experiment: LPA-induced MCP-1 AlphaLISA assay; conditions: Rattus norvegicus, final LPA 10 μM, 7 hours; for Emax: read-out: Maximum Inhibition
In short: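 NRK-49F rat fibroblasts, serum-starved overnight, pretreated with compound for 30 min at 37 °C (1% DMSO final), then stimulated with 10 μM LPA final. MCP-1 in the supernatant was measured by mouse/rat CCL2 AlphaLISA. IC50 values came from four-parameter logistic fits of the ratio data.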

T1 sequence (Q92633 whole entry): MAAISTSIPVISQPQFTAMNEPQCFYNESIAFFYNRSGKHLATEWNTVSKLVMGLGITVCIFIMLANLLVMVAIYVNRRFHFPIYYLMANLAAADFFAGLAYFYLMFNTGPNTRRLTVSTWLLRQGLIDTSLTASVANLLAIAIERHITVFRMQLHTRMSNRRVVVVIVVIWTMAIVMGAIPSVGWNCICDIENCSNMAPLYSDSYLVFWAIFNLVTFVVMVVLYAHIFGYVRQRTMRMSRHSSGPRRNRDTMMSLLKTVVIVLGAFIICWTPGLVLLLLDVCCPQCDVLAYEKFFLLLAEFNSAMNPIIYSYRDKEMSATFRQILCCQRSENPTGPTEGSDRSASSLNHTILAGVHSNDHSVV

SMILES | IC50 (LPAR1 [1]) [nM] | Emax (LPAR1 [1]) [%] | IC50 (LPAR1 [2]) [nM] | Emax (LPAR1 [2]) [%] | IC50 [3] [nM] | Emax [3] [%]
CNS(=O)(=O)NC(=O)CCCCN(CCCc1ccccc1)C(=O)C1(c2ccc(OC)cc2)CC1 [Example 73, 1-(4-methoxyphenyl)-N-{5-[(methylsulfamoyl)amino]-5-oxopentyl}-N-(3-phenylpropyl)cyclopropane-1-carboxamide] | 60 | 65 | > 30000 | 44 | 5160 | 79
COc1cc(C(=O)N(CCCc2ccccc2)CCOCCC(=O)O)cc(OC)c1C [Example 56, 3-{2-[(3,5-dimethoxy-4-methylbenzoyl)(3-phenylpropyl)amino]ethoxy}propanoic Acid] | 21 | 95 | 424 | 100 | 1240 | 79
COc1cc(C(=O)N(CCCCC(=O)NS(=O)(=O)c2ccccn2)CCCc2ccccc2)cc(OC)c1C [Example 141, 3,5-dimethoxy-4-methyl-N-{5-oxo-5-[(pyridine-2-sulfonyl)amino]pentyl}-N-(3-phenylpropyl)benzamide] | 28 | 94 | 200 | 76 | 143 | 84
COc1cc(C(=O)N(CCCCC(=O)O)CCCc2cccc(C)c2)cc(OC)c1C [Example 11, 5-{(3,5-dimethoxy-4-methylbenzoyl)[3-(3-methylphenyl)propyl]amino}pentanoic Acid] | 15 | 96 | 253 | 88 | 247 | 91
COc1cc(OC)cc(C(=O)N(CCCc2ccccc2)CCCC(C)C(=O)O)c1 (stereo not drawn) [Example 98, 5-[(3,5-dimethoxybenzoyl)(3-phenylpropyl)amino]-2-methylpentanoic Acid] | 29 | 87 | 836 | 76 | 4580 | 66
COc1cc(C(=O)N(CCCCC(=O)O)CCCc2ccc(C)o2)cc(OC)c1C [Example 138, 5-{(3,5-dimethoxy-4-methylbenzoyl)[3-(5-methylfuran-2-yl)propyl]amino}pentanoic Acid] | 13 | 89 | 201 | 87 | 1010 | 85
COc1cc(C(=O)N(CCCCCC(=O)O)CCCc2ccccc2)cc(OC)c1C [Example 5, 6-[(3,5-dimethoxy-4-methylbenzoyl)(3-phenylpropyl)amino]hexanoic Acid] | 27 | 97 | 313 | 105 | 286 | 97
